Experimental data reported in US9296704B2, “Substituted pyrimidines as protein kinase inhibitors” (CELGENE AVILOMICS RESEARCH, INC., priority 2007, dated 2016).

Assays:
[1] = system: BTK signaling in Ramos cells; experiment: BTK Ramos cellular assay (PLCγ2 phosphorylation); format: cell-based; settings: Homo sapiens; for IC50: Ramos cells, PLCγ2 phosphorylation, read-out: BTK Inhibition
BMX = target: T1, BMX (Homo sapiens, UniProt P51813); experiment: Omnia assay for potency against BMX; format: biochemical; settings: read-out: BMX inhibition
T1 sequence (P51813 1-675): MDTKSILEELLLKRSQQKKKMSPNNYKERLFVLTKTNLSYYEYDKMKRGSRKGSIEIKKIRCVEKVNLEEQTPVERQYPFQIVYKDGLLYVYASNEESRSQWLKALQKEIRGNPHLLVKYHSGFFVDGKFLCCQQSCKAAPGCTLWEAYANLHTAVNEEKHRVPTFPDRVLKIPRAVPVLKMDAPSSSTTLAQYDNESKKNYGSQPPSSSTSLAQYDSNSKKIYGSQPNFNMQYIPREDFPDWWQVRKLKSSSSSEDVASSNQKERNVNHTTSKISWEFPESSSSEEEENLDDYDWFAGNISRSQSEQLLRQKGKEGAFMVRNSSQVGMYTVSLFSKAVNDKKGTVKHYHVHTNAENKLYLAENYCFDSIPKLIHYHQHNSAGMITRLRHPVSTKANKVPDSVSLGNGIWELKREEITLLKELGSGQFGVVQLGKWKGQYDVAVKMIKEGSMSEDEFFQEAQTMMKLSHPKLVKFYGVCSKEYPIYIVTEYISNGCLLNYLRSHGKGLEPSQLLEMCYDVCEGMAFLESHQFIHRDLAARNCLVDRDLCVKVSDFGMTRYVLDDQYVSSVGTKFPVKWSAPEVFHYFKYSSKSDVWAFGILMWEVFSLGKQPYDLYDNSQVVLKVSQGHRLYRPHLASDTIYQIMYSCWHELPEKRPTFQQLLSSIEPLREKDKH

BTK = BTK (Homo sapiens, UniProt Q06187); experiment: Omnia assay for potency against BTK; format: biochemical; settings: read-out: BTK Inhibition
Sequence of BTK (Q06187 whole entry): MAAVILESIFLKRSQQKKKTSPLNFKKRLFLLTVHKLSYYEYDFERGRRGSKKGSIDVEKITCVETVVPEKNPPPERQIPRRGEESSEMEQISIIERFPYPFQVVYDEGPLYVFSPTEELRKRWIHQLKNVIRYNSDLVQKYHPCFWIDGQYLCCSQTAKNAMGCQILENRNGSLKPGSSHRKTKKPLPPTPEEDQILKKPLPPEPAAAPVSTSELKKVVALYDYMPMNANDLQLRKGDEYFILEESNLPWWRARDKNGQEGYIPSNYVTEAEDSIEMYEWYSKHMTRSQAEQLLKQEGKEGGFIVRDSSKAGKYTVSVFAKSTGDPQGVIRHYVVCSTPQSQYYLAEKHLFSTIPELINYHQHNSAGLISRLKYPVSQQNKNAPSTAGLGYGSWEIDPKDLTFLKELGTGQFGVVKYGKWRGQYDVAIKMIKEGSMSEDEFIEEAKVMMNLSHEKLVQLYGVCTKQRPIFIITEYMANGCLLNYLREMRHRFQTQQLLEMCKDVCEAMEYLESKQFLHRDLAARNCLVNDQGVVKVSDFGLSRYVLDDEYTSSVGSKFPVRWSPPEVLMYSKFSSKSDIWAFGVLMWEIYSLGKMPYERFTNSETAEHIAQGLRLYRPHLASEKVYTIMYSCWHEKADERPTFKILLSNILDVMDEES
How it was run: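 BTK (5 nM) was pre-incubated 30 min at 27° C with serially diluted compounds in Tris pH 7.5/MgCl2 buffer, then started with […] and Y5-Sox peptide 10 mM (ATP KMapp ~36 mM). Fluorescence (ex360/em485) was read continuously over 60 min. IC50 came from initial velocities using a variable-slope fit.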

ITK = target: T2, ITK (Homo sapiens, UniProt Q08881); experiment: Omnia assay for potency against ITK; format: biochemical; settings: read-out: ITK inhibition
T2 sequence (Q08881 1-620): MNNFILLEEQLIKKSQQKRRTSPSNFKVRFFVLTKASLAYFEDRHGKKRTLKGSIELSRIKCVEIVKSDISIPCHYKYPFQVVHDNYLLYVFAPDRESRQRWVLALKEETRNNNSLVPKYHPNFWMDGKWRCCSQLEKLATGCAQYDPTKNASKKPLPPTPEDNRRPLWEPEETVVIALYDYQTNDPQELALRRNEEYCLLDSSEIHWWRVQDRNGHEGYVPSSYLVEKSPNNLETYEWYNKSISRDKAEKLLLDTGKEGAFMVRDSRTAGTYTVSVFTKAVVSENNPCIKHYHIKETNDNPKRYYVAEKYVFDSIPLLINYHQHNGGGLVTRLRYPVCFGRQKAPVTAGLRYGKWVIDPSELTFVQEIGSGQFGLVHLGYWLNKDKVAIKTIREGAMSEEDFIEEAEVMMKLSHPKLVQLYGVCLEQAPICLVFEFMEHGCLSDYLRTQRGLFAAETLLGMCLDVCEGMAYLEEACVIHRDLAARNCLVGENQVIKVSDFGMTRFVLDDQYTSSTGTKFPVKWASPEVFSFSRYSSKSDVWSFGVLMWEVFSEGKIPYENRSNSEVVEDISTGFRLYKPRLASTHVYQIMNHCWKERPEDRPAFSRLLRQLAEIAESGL
Text: The protocol below describes continuous-read kinase assays to measure inherent potency of compounds against active forms of EGFR (WT) and EGFR (T790M/L858R) enzymes. The mechanics of the assay platform are best described by the vendor (Invitrogen, Carlsbad, Calif.) on their website at the following URL: http://www.invitrogen.com/content.cfm?pageid=11338 or http://www.invitrogen.com/site/us/en/home/Products-and-Services/Applications/Drug-Discovery/Target-and-Lead-Identification-and-Validation/KinaseBiology/KB-Misc/Biochemical-Assays/Omnia-Kinase-Assays.html.
Briefly, 10× stocks of EGFR-WT (PV3872) from Invitrogen and EGFR-T790M/L858R (40350) from BPS Bioscience, San Diego, Calif., 1.13×ATP (AS001A) and appropriate Tyr-Sox conjugated peptide substrates (KCZI001) were prepared in 1× kinase reaction buffer consisting of 20 mM Tris, pH 7.5, 5 mM MgCl2, 1 mM EGTA, 5 mM β-glycerophosphate, 5% glycerol (10× stock, KB002A) and 0.2 mM DTT (DS001A). 5 μL of each enzyme were pre-incubated in a Corning (#3574) 384-well, white, non-binding surface microtiter plate (Corning, NY) for 30 min. at 27° C. with a 0.5 μL volume of 50% DMSO and serially diluted compounds prepared in 50% DMSO. Kinase reactions were started with the addition of 45 μL of the ATP/Tyr-Sox peptide substrate mix and monitored every 30-90 seconds for 60 minutes at λex360/λem485 in a Synergy^4 plate reader from BioTek (Winooski, Vt.). At the conclusion of each assay, progress curves from each well were examined for linear reaction kinetics and fit statistics (R^2, 95% confidence interval, absolute sum of squares). Initial velocity (0 minutes to ˜30 minutes) from each reaction was determined from the slope of a plot of relative fluorescence units vs time (minutes) and then plotted against inhibitor concentration to estimate IC50 from log [Inhibitor] vs Response, Variable Slope model in GraphPad Prism from GraphPad Software (San Diego, Calif.).
This example describes continuous-read kinase assays to measure inherent potency of compound against active forms of ITK enzymes as described in Example 10 above except that the modified ITK-optimized reagent conditions are: • [ITK]=10 nM, [ATP]=25 μM, [Y6-Sox]=10 μM (ATP KMapp=33 μM).

IC50 [1]	IC50 (BMX)	IC50 (BTK)	IC50 (ITK)	Compound	inhibition at 1 µM ([1]; Ramos, at 1 μM, 1 hour)
≤ 10 nM	≤ 10 nM	≤ 10 nM	10 to 100 nM	Cc1cccc(Oc2cc(Nc3cccc(NC(=O)/C=C/CN(C)C)n3)ncn2)c1 [I-81]	–
≤ 10 nM	≤ 10 nM	≤ 10 nM	1000 to 10000 nM	C=CC(=O)Nc1cccc(Nc2cc(Nc3ccc(Oc4ccccc4)cc3)ncn2)n1 [I-63]	–
–	≤ 10 nM	≤ 10 nM	1000 to 10000 nM	C=CC(=O)Nc1cccc(Nc2cc(Oc3ccc(Oc4ccccc4)cc3)ncn2)n1 [I-66]	–
–	–	10 to 100 nM	–	C=CC(=O)Nc1cccc(Nc2cc(Nc3cccc(Br)c3)ncn2)c1 [I-1, N-{3-[6-(3-bromophenylamino)-pyrimidin-4-ylamino]-phenyl}-2-propenamide]	–
≤ 10 nM	10 to 100 nM	≤ 10 nM	10 to 100 nM	C=CC(=O)N(C)c1cccc(Nc2cc(Nc3ccc(Oc4ccccc4)cc3)ncn2)n1 [I-78, N-methyl-N-(6-(6-(4-phenoxyphenylamino)pyrimidin-4-ylamino)pyridin-2-yl)acrylamide]	–
≤ 10 nM	≤ 10 nM	≤ 10 nM	≤ 10 nM	CN(C)C/C=C/C(=O)N(C)c1cccc(Nc2cc(Nc3ccc(Oc4ccccc4)cc3)ncn2)n1 [I-79, (E)-4-(dimethylamino)-N-methyl-N-(6-(6-(4-phenoxyphenylamino)pyrimidin-4-ylamino)pyridine-2-yl)but-2-enamide]	–
–	≤ 10 nM	≤ 10 nM	10 to 100 nM	C=CC(=O)Nc1cccc(Nc2cc(Nc3ccccc3)ncn2)n1 [I-94]	–
10 to 100 nM	10 to 100 nM	≤ 10 nM	10 to 100 nM	CN(C)C/C=C/C(=O)Nc1cccc(Nc2cc(Nc3ccc(Oc4ccccc4)cc3)ncn2)n1 [I-64, (E)-4-(dimethylamino)-N-(6-(6-(4-phenoxyphenylamino)pyrimidin-4-ylamino)pyridine-2-yl)but-2-enamide]	–
–	≤ 10 nM	≤ 10 nM	10 to 100 nM	C=CC(=O)Nc1cccc(Nc2cc(Oc3cccc(C)c3)ncn2)n1 [I-65]	–

Compound	IC50 [1]	IC50 (BMX)	IC50 (BTK)	IC50 (ITK)	inhibition at 1 µM ([1]; Ramos, at 1 μM, 1 hour)
C=CC(=O)Nc1cccc(Nc2cc(Nc3ccc(Oc4ccccc4)cc3)ncn2)c1 [I-13, N-{3-[6-(4-phenoxyphenylamino)-pyrimidin-4-ylamino]phenyl}-2 propenamide]	10 to 100 nM	≤ 10 nM	≤ 10 nM	1000 to 10000 nM	85%
